# Measurements as given in US20100204295A1, “TREATMENT OF ALLERGIC DISEASE WITH IMMUNOMODULATOR COMPOUNDS” (SCICLONE PHARMACEUTICALS, INC., priority 2007, published 2010).
# What was measured:
# [1] = system: experimental allergic asthma (BAL cells); assay: Cytological composition of bronchoalveolar lavage in allergic ovalbumin asthma model; format: in vivo, mice of the Balb/C line; conditions: for Total cellularity of the BAL: animals 6-8 weeks, mean±SD; for Eosinophils, % of BAL cells / Lymphocytes, % of BAL cells / Monocytes/Macrophages, % of BAL cells / Neutrophils, % of BAL cells: animals 6 to 8 weeks; for Eosinophils in BAL, thousand / Lymphocytes in BAL, thousand / Monocytes/Macrophages in BAL, thousand / Neutrophils in BAL, thousand / Total number of cells in the lavages: animals 18 to 20 weeks
# Text: Female, non-pathogenic mice of the Balb/C line (“Pushchtino” laboratory animal breeders) were kept under conditions of an SPF-vivarium at a constant temperature, 12-hour day/night cycle, and received sterile feed and water ad libitum. In two series of experiments, mice from 6-8 weeks and 18-20 weeks of age were used at the beginning of the experiment, respectively.
# The animals were immunized twice at 5-day intervals with an ovalbumin solution (Sigma) in an adjuvant based on ammonium sulfate at a dosage of 8 μg per mouse. SCV-07 was administered intra-abdominally in a volume of 200 μL at a dosage of 0.1 or 1.0 μg/kg in PBS once a day from 6 through 11 days after the first immunization. The control group received physiological saline on the same days. Each group comprised 6 to 10 animals. On the 12th, 16th and 20th days after the first immunization, the animals were then placed in a hermetic box, in which an aerosol of 1% ovalbumin solution (OvA) in PBS was generated with an ultrasonic nebulizer LD-207U (Little Doctor) for 1 minute with continuous mixing of air. The duration of exposure of the animals to the aerosol was 15 minutes. Analysis of the severity of experimental allergic asthma was carried out 24 hours after the last aerosol exposure.
# The mice were killed by intra-abdominal administration of a lethal dose of sodium barbital. Bronchoalveolar lavage (BAL) was obtained by washing the lungs through the trachea with 1 mL PBS solution. The BAL cells were precipitated by centrifuging, the precipitate was resuspended, the cell concentration was counted in a Goryaev chamber, and smears were prepared. The smears were dried, fixed and stained with Romanovskii dye. The cytological composition of the bronchoalveolar lavage was investigated under a light microscope with oil immersion (eyepiece×16, objective×100). The numbers of monocyte/macrophages, neutrophils, eosinophils and lymphocytes per 200 cells were counted, in which no less than 5 visual fields were viewed. The relative number of cells of each cell population was expressed as the percentage of the total number of cells.
# The statistical processing of the results was carried out with the Microsoft Excel and SPSS programs for Windows v.13. The normality of the distribution was determined with the Kholmogorov-Smimov criterion. To evaluate the significance of the differences between groups for normally distributed values, we used the two-sided Student test with unequal deviations, for non-normally distributed differences—the Mann-Whitney test. The differences were considered significant at p<0.05. Unless otherwise stated, the data are presented in the form of means±standard deviation.
# [2] = system: infiltration of the lung tissue; assay: Morphometric peribronchial and perivascular infiltration of lung tissue, ovalbumin asthma model; format: in vivo, mice of the Balb/C line; conditions: age group not given
# Text: Female, non-pathogenic mice of the Balb/C line (“Pushchtino” laboratory animal breeders) were kept under conditions of an SPF-vivarium at a constant temperature, 12-hour day/night cycle, and received sterile feed and water ad libitum. In two series of experiments, mice from 6-8 weeks and 18-20 weeks of age were used at the beginning of the experiment, respectively. The animals were immunized twice at 5-day intervals with an ovalbumin solution (Sigma) in an adjuvant based on ammonium sulfate at a dosage of 8 μg per mouse. SCV-07 was administered intra-abdominally in a volume of 200 μL at a dosage of 0.1 or 1.0 μg/kg in PBS once a day from 6 through 11 days after the first immunization. The control group received physiological saline on the same days. Each group comprised 6 to 10 animals. On the 12th, 16th and 20th days after the first immunization, the animals were then placed in a hermetic box, in which an aerosol of 1% ovalbumin solution (OvA) in PBS was generated with an ultrasonic nebulizer LD-207U (Little Doctor) for 1 minute with continuous mixing of air. The duration of exposure of the animals to the aerosol was 15 minutes. Analysis of the severity of experimental allergic asthma was carried out 24 hours after the last aerosol exposure. […] Sections of […] were prepared. The sections were stained with hematoxylin-eosin to evaluate the intensity of cell infiltration and Schiff-iodic acid to count the number of goblet cells. Quantitative evaluation of the peribronchial and perivascular infiltration was accomplished morphometrically with the Scion Image program package. Three bronchi and three vessels were analyzed on sections of the lungs from each animal. The area of the infiltration was calculated as the difference between the area of the tissue containing bronchi or vessels and the infiltration surrounding it, and the area of the vessel or bronchus itself. The indices of infiltration were calculated as the ratio of the area of the infiltration to the area of the vessel or bronchus.
# [3] = system: immunization with sheep red blood cells; conditions: in vivo; cited from earlier work
compound,measurement,setting,value
"N[C@H](CCC(=O)N[C@@H](Cc1c[nH]c2ccccc12)C(=O)O)C(=O)O [SCV-07, γ-D-glutamyl-L-tryptophan]",Total cellularity of the BAL,[1]; SCV-07 0.1 μg/kg intra-abdominally,1.96±0.99 million
same,Total cellularity of the BAL,[1]; SCV-07 1 μg/kg,2.21±1.16 million
same,"Eosinophils, % of BAL cells",[1]; 0.1 μg/kg,57.4 ± 21.3%
same,"Lymphocytes, % of BAL cells",[1]; 0.1 μg/kg,0.4 ± 0.5%
same,"Monocytes/Macrophages, % of BAL cells",[1]; 0.1 μg/kg,41.2 ± 20.7%
same,"Neutrophils, % of BAL cells",[1]; 0.1 μg/kg,0.9 ± 0.8%
same,"Eosinophils, % of BAL cells",[1]; 1 μg/kg,56.7 ± 9.5 %
same,"Lymphocytes, % of BAL cells",[1]; 1 μg/kg,0.6 ± 0.7%
same,"Monocytes/Macrophages, % of BAL cells",[1]; 1 μg/kg,40.6 ± 9.4 %
same,"Neutrophils, % of BAL cells",[1]; 1 μg/kg,2.1 ± 0.9%
same,"Eosinophils in BAL, thousand",[1]; 0.1 μg/kg,456 ± 144 thousand
same,"Lymphocytes in BAL, thousand",[1]; 0.1 μg/kg,22 ± 11 thousand
same,"Monocytes/Macrophages in BAL, thousand",[1]; 0.1 μg/kg,629 ± 134 thousand
same,"Neutrophils in BAL, thousand",[1]; 0.1 μg/kg,17 ± 14 thousand
same,Total number of cells in the lavages,"[1]; 0.1 μg/kg, p<0.05 vs control",1.12±0.15 million
same,"Eosinophils in BAL, thousand",[1]; 1 μg/kg,690 ± 247 thousand
same,"Lymphocytes in BAL, thousand",[1]; 1 μg/kg,26 ± 9 thousand
same,"Monocytes/Macrophages in BAL, thousand",[1]; 1 μg/kg,586 ± 144 thousand
same,"Neutrophils in BAL, thousand",[1]; 1 μg/kg,18 ± 10 thousand
same,Total number of cells in the lavages,[1]; 1 μg/kg,1.32±0.23 million
same,"Index of peribronchial infiltration, conventional units",[2]; 0.1 μg/kg,0.39 ± 0.19 conventional units
same,"Index of perivascular infiltration, conventional units",[2]; 0.1 μg/kg,1.67 ± 1.08 conventional units
same,"Index of peribronchial infiltration, conventional units",[2]; 1 μg/kg,0.35 ± 0.14 conventional units
same,"Index of perivascular infiltration, conventional units",[2]; 1 μg/kg,1.48 ± 1.02 conventional units
same,Effect in a model of immunization with sheep red blood cells,[3],strong immunostimulatory effect
